Assay results published in patent publication US20110201569A1, “Methods For Treating Myocardial Disorders” (priority 2009, published 2011).

What was measured:
Type in all cases: in vivo, mouse
[1] = system: total matrix metalloproteinase (MMP-2+MMP-9); experiment: Total MMP mRNA (MMP-2+MMP-9) calculated from qRT-PCR; settings: Example 1; TAC vs sham within treated groups; three days after surgery
Method: (§1) 11 to 13 week old male C57BL/6 mice were purchased from Charles River (Germany). Mice were housed in individually ventilated pathogen-free cages with free access to water and standard rodent chow. The animals were handled according to the principles of laboratory animal care (NIH publication No. 85-23, revised 1996), and animal procedures were approved by the local committee for animal care.
(§2) The first injection was performed 5 min prior to TAC or sham-operation procedure (described below) and repeated 4, 8, 12, 24, 36, 48 and 60 hrs after surgery. […]
(§3) Quantitative real-time PCR analysis was completed. […] RNA was dissolved in 100 μl of RNase-free water, and concentration was determined photometrically (absorbance at 260 nm) before storage at −80° C. […]
(§4) Real-time PCR was performed according to the manufacturer's protocol. […] Each sample was measured in triplicate wells and underwent 40 cycles of amplification on an ABI PRISM® Sequence Detection System (Applied Biosystems). CT values were determined with SDS Software 2.2 (Applied Biosystems) and relative quotients (RQ) were calculated following the ΔΔCT method (RQ target gene/GAPDH).
(§5) Statistics were calculated using Prism 4.05 (GraphPad Software Inc., CA, USA). All values are expressed as mean (M)±SEM. […]

[2] = system: TIMP-1; experiment: qRT-PCR of TIMP-1 mRNA in left ventricle after TAC/sham
Method: as §1
The first injection was performed 5 min prior to TAC or sham-operation procedure (described below) and repeated 4, 8, 12, 24, 36, 48 and 60 hrs after surgery. Animals were randomly assigned into two groups, receiving either a tetrasodium salt of the compound of formula 1 (hereinafter “Eritoran tetrasodium”) or placebo. The catheter was flushed with 50 μl 0.9% NaCl before and 100 μl after each injection of 50 μl Eritoran tetrasodium (2.5 mg/ml vehicle; 5 mg/kg bodyweight/application; dosage adopted from Shimamoto et al., Circulation 2006, 114: 1270-1274) or placebo solution.
Treatment groups were separated into two subgroups, undergoing transverse aortic constriction (TAC) or sham operation. […]
as §3, §4
Statistics were calculated using Prism 4.05 (GraphPad Software Inc., CA, USA). All values are expressed as mean (M)±SEM. One-way ANOVA with Newman-Keuls post-hoc testing was performed for statistical analysis with the exception of TIMP and cytokine expression which were analysed with Kruskal-Wallis and Dunn's multiple comparison post-hoc testing Impact of TAC-Eritoran on IL-10 expression was analysed with Two-way ANOVA. […]

[3] = system: TNF-α; experiment: qRT-PCR of TNF-α mRNA in left ventricle after TAC/sham; settings: Example 1, TAC, three days after surgery, M ± SEM
Method: as §1, §2, §3, §4, §5

[4] = system: Tristetraprolin (TTP); experiment: qRT-PCR of TTP mRNA in left ventricle after TAC/sham; settings: Example 1, three days after surgery
Method: as §1, §2, §3, §4, §5

[5] = system: brain natriuretic peptide (BNP); experiment: qRT-PCR of BNP mRNA in left ventricle after TAC/sham; settings: Example 2; TAC treated vs TAC-placebo
Method: as §1, §2, §3, §4, §5

[6] = system: IL-1β; experiment: qRT-PCR of IL-1β mRNA in left ventricle after TAC/sham; settings: Example 2; TAC treated vs TAC-placebo
Method: as §1, §2, §3, §4, §5

| Structure (SMILES) | total MMP mRNA level (MMP-2+MMP-9) [1] | TIMP-1 mRNA expression ([2]; Example 1, TAC, three days after surgery, RQ target gene/GAPDH) | TIMP-1 mRNA expression ([2]; Example 1, sham operation, three days after surgery, RQ target gene/GAPDH) | TNF mRNA level [3] | TTP/TNFα ratio ([4]; TAC) | TTP/TNFα ratio ([4]; sham operation) | BNP mRNA expression [5] | TIMP-1 mRNA expression ([2]; Example 2, TAC treated vs TAC-placebo) | IL-1β mRNA expression [6] |
| --- | --- | --- | --- | --- | --- | --- | --- | --- | --- |
| CCCCCC/C=C\CCCCCCCCCC(=O)N[C@H]1[C@H](OC[C@H]2O[C@H](OP(=O)([O-])[O-])[C@H](NC(=O)CC(=O)CCCCCCCCCCC)[C@@H](OCCCCCCCCCC)[C@@H]2O)O[C@H](COC)[C@@H](OP(=O)([O-])[O-])[C@@H]1OCC[C@@H](CCCCCCC)OC.[Na+].[Na+].[Na+].[Na+] [Eritoran tetrasodium] | remained unchanged by aortic banding | 23.20±14.52 | 1.16±0.40 | 1.32±0.19 | 0.61±0.33 | 1.40±0.33 | – | – | – |
| CCCCCC/C=C\CCCCCCCCCC(=O)N[C@H]1[C@H](OC[C@H]2O[C@H](OP(=O)(O)O)[C@H](NC(=O)CC(=O)CCCCCCCCCCC)[C@@H](OCCCCCCCCCC)[C@@H]2O)O[C@H](COC)[C@@H](OP(=O)(O)O)[C@@H]1OCC[C@@H](CCCCCCC)OC [compound of formula (I), α-D-Glucopyranose, 3-O-decyl-2-deoxy-6-O-[2-deoxy-3-O-[(3R)-3-methoxydecyl)-6-O-methyl-2-[[(−11Z)-1-oxo-11-octadecenyl)amino]-4-O-phosphono-β-D-glucopyranosyl]-2-[(1,3-dioxotetradecyl)amino]-1-(dihydrogen phosphate)] | – | – | – | – | – | – | elevated in TAC-placebo mice compared to sham and the TAC groups treated | higher | lower |
